# Activity calls are given as the source filed them. The rule behind the calls is not given here.
# Tests used:
# [1] = system: Mus musculus; assay: Antidiabetic activity in male db/db mouse model assessed as downregulation of aP2 gene expression in white adipose tissue at 2.5 to 10 mg/kg/day, ip administered for 4 weeks by RT-qPCR analysis; format: functional, organism-based; conditions: dose 2.5-10 mg/kg/day
# [2] = target: T1, Peroxisome proliferator-activated receptor gamma (Homo sapiens) (UniProt P37231); assay: Covalent binding affinity to recombinant PPAR-gamma ligand binding domain (unknown origin) incubated for 30 mins by high-performance liquid chromatography Fourier transform mass spectrometric analysis; conditions: filed as partial agonist
# T1 sequence (whole entry): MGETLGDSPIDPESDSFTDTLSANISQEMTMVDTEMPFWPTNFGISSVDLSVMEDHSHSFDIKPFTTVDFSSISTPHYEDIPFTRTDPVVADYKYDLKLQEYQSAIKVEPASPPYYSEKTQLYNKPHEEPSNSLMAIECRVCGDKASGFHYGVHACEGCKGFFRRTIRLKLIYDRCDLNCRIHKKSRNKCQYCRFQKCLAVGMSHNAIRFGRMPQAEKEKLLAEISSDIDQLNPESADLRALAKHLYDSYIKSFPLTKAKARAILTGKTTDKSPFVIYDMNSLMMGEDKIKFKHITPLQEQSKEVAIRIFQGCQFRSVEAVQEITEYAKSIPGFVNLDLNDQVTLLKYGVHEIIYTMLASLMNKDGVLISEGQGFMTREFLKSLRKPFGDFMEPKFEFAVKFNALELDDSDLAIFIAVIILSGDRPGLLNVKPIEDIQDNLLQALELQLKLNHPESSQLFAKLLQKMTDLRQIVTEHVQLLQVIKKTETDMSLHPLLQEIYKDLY
# [3] = Toxicity in male db/db mouse model assessed as effect on spleen weight at 2.5 to 10 mg/kg/day, ip administered for 4 weeks; format: organism-based; conditions: in vivo, 672 h, dose 2.5-10 mg/kg/day
# [4] = system: Mus musculus; assay: Antidiabetic activity in male db/db mouse model assessed as downregulation of FASN gene expression in liver at 2.5 to 10 mg/kg/day, ip administered for 4 weeks by RT-qPCR analysis; format: functional, organism-based; conditions: dose 2.5-10 mg/kg/day
# [5] = system: 3T3-L1; assay: Inhibition of adipocyte differentiation in mouse 3T3-L1 cells assessed as reduction in lipid accumulation at 1 uM measured after 48 hrs by Oil red O staining based inverted microscopic analysis; format: functional, cell-based
# [6] = Toxicity in male db/db mouse model assessed as increase in brown adipose tissue weight at 2.5 to 10 mg/kg/day, ip administered for 4 weeks; format: organism-based; conditions: in vivo, 672 h, dose 2.5-10 mg/kg/day
# [7] = system: Mus musculus; assay: Antidiabetic activity in male db/db mouse model assessed as downregulation of PPARgamma gene expression in liver at 2.5 to 10 mg/kg/day, ip administered for 4 weeks by RT-qPCR analysis; format: functional, organism-based; conditions: dose 2.5-10 mg/kg/day
# [8] = system: Mus musculus; assay: Antidiabetic activity in male db/db mouse model assessed as downregulation of C/EBPalpha gene expression in liver at 2.5 to 10 mg/kg/day, ip administered for 4 weeks by RT-qPCR analysis; format: functional, organism-based; conditions: dose 2.5-10 mg/kg/day
# [9] = target: T2, Peroxisome proliferator-activated receptor gamma (Homo sapiens, UniProt P37231); assay: Displacement of fluormone pan-PPAR green from recombinant GST-tagged human PPAR-gamma ligand binding domain (E235 to Y505 residues) extracted from Escherichia coli BL21 (DE3) cells by TR-FRET assay
# T2 sequence (P37231 whole entry): T1 sequence (whole entry)
# [10] = target: T1, Peroxisome proliferator-activated receptor gamma (Homo sapiens); assay: Reversible covalent binding affinity to recombinant GST-tagged human PPAR-gamma ligand binding domain (E235 to Y505 residues) extracted from Escherichia coli BL21 (DE3) cells at 500 nM measured upto 240 mins by TR-FRET assay; conditions: filed as partial agonist
# [11] = system: Mus musculus; assay: Effect on cdk5 protein expression in male db/db mouse liver at 2.5 to 10 mg/kg/day, ip administered for 4 weeks by Western blotting analysis; format: functional, organism-based; conditions: dose 2.5-10 mg/kg/day
# [12] = target: T1, Peroxisome proliferator-activated receptor gamma (Homo sapiens); assay: Reversible covalent binding affinity to full-length human PPAR-gamma transfected in […] cells at 5 to 60 nM preincubated for 6 hrs followed by rosiglitazone addition and measured after 24 hrs by Firefly and Renilla-Glo luciferase reporter assay; format: cell-based; conditions: filed as partial agonist, dose 5-60 nM, time 30.0 hrs
# [13] = Toxicity in male db/db mouse model assessed as effect on heart morphology at 2.5 to 10 mg/kg/day, ip administered for 4 weeks; format: organism-based; conditions: in vivo, 672 h, dose 2.5-10 mg/kg/day
# [14] = system: Mus musculus; assay: In vivo inhibition of Erk/Cdk5-mediated PPAR-gamma phosphorylation at Ser273 residue in male db/db mouse model assessed as decrease in phosphorylated-MEK expression in white adipose tissue at 2.5 to 10 mg/kg/day, ip administered for 4 weeks by Western blotting analysis; format: functional, organism-based; conditions: dose 2.5-10 mg/kg/day
# [15] = system: Mus musculus; assay: Antidiabetic activity in male db/db mouse model assessed as decrease in serum insulin level at 2.5 to 10 mg/kg/day, ip preadministered for 4 weeks followed by glucose administration after 4 to 6 hrs of fasting and measured after 120 mins by intraperitoneal insulin tolerance test; format: functional, organism-based; conditions: dose 2.5-10 mg/kg/day
# [16] = target: T3, Peroxisome proliferator-activated receptor alpha (Homo sapiens) (UniProt Q07869); assay: Binding affinity to PPAR-alpha (unknown origin) at 0.5 uM in presence of fluormone pan-PPAR green tracer by TR-FRET assay
# T3 sequence (whole entry): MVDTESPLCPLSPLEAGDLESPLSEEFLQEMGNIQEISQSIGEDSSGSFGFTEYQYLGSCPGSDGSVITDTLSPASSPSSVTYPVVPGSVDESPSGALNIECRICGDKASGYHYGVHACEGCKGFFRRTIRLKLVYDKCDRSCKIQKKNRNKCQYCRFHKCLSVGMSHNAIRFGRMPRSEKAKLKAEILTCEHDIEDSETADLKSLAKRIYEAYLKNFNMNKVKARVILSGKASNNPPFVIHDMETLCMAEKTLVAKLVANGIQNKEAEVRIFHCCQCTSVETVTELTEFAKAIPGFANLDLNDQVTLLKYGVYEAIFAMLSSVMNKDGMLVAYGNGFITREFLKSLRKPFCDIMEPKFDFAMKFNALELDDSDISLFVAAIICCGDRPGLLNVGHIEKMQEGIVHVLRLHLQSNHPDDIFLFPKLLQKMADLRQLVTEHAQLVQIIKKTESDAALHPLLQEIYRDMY
# [17] = system: Mus musculus; assay: Antidiabetic activity in male db/db mouse model assessed as increase in ADIPOQ protein abundance in white adipose tissue at 2.5 to 10 mg/kg/day, ip administered for 4 weeks by Western blotting analysis; format: functional, organism-based; conditions: dose 2.5-10 mg/kg/day
# [18] = system: Mus musculus; assay: Effect on pRb protein expression in male db/db mouse liver at 2.5 to 10 mg/kg/day, ip administered for 4 weeks by Western blotting analysis; format: functional, organism-based; conditions: dose 2.5-10 mg/kg/day
# [19] = system: Mus musculus; assay: Antidiabetic activity in male db/db mouse model assessed as downregulation of CD36 gene expression in liver at 2.5 to 10 mg/kg/day, ip administered for 4 weeks by RT-qPCR analysis; format: functional, organism-based; conditions: dose 2.5-10 mg/kg/day
# [20] = Toxicity in male db/db mouse model assessed as increase in white adipose tissue weight at 2.5 to 10 mg/kg/day, ip administered for 4 weeks; format: organism-based; conditions: in vivo, 672 h, dose 2.5-10 mg/kg/day
# [21] = system: Mus musculus; assay: Antidiabetic activity in male db/db mouse model assessed as upregulation of Glut4 gene expression in white adipose tissue at 2.5 to 10 mg/kg/day, ip administered for 4 weeks by RT-qPCR analysis; format: functional, organism-based; conditions: dose 2.5-10 mg/kg/day
structure (smiles),measurement,setting,value
Cc1ccc(S(=O)(=O)Oc2ccc(S3(=O)=N[Se]c4cc(OS(=O)(=O)c5ccc(C)cc5)ccc43)cc2)cc1 (stereo unspecified),Activity,[1],Active
same,Activity,[2],Active; Mass Change Of 633.50 Da For Ppargamma-Lbd Observed
same,Activity,[3],Non-toxic
same,Activity,[4],Active
same,inhibition,[5],Active
same,Activity,[6],Non-toxic
same,Activity,[7],Active
same,Activity,[8],Active
same,IC50,[9],346 nM
same,Activity,[10],Active
same,Activity,[11],inactive
same,Activity,[12],Active
same,Activity,[13],Non-toxic
same,inhibition,[14],Active
same,Activity,[15],Active
same,Activity,[16],inactive
same,Activity,[17],Active
same,Activity,[18],inactive
same,Activity,[19],Active
same,Activity,[20],Non-toxic
same,Activity,[21],Active

# Source: ChEMBL document CHEMBL6087454, “Identification of Novel Organo-Se BTSA-Based Derivatives as Potent, Reversible, and Selective PPARγ Covalent Modulators for Antidiabetic Drug Discovery” (J Med Chem, 2025)
